# Measured values reported in EP0433526A1, “Medicine for the treatment of heart-circulatory illnesses, of arrhythmics in particular” (Richter, Peter, Prof. Dr.sc.nat., priority 1989, dated 1991).
# Key:
# [1] = rat; for therapeutische Index (Q = LD₅₀/ED₂₀): acute test, intravenous injection
# [2] = system: Infarktgröße; assay: Infarct size determination (p-NBT), rat, i.v.; assay type: in vivo, Ratte; conditions: for Hemmung der Infarktgröße x %: significant
# From the text: Die Bestimmung der Herzinfarktgröße ist ein wichtiger Parameter zum Nachweis antiischämischer Wirkqualitäten für eine Substanz. Die hier angewendete markohistochemische Infarktgrößenbestimmung durch Inkubation mit p-Nitroblautetrazoliumsalz (p-NBT) beruht auf einem Dehydrogenasenachweis, wobei p-NBT als Wasserstoffakzeptor dient und die damit verbundene Reduktion des Salzes zu einer Farbänderung desselben führt. Die Beeinflussung der Größe des ischämischen Areals - die Ischämie wurde durch Ligatur der linken Koronararterie männlicher Wistarratten (Körpermasse 200-250 g) erzeugt - wurde nach i.v. Applikation (3 min vor Okklusion) einiger Verbindungen der allgemeinen Formel 1 untersucht. Die hier erhobenen Befunde spiegeln eindeutig die myokardprotektive Wirkkomponente dieser Verbindungen wieder. […] (Beispiel 21) bzw. das (E)-/(Z)-2-Amino-5-chlorbenzophenon-N-phenylamidinohydrazonnitrat [B] (Beispiel 3) wurden die in Tabelle 9 wiedergegebenen Resultate erhalten. TABELLE 9
# [3] = system: Koronararterienokklusion; assay: Coronary artery occlusion, rat, i.v. (early-phase arrhythmias); assay type: in vivo, Ratte; conditions: for Überlebensrate n. 20 min: 2 . 10⁻⁵ mol/kg i.v. 3 min before occlusion, control 33; for Normaler Sinusrhythmus / Tod durch Bradyk. / Auftreten von Arrhythmien VF / Auftreten von Arrhythmien VT / Auftreten von Arrhythmien andere: 2 . 10⁻⁵ mol/kg i.v.; for Normaler Sinusrhythmus: control 0; for Tod durch Bradyk.: control 30; for Auftreten von Arrhythmien VF: control 59; for Auftreten von Arrhythmien VT / Auftreten von Arrhythmien andere: control 82
# Method: Die Untersuchungen zur Beeinflussung der Arrhythmien in der Frühphase nach Koronarokklusion erfolgten an männlichen Wistarratten (Körpermasse 200-250 g) in Pentobarbitalnarkose. Nach Ligatur der linken Koronararterie wurden die Überlebensrate sowie das Auftreten verschiedener Arrhythmieformen innerhalb 20 min nach Okklusion bewertet. Für die überlebenden Tiere erfolgten zusätzlich die Bestimmung des Zeitpunktes des Einsetzens der Arrhythmien und deren Dauer in min sowie die Zahl der ventrikulären Extrasystolen. Das Arrhythmiegeschehen in der Frühphase nach Ligatur wurde von einer Reihe Verbindungen der allgemeinen Formel 1 nach i.v.-Injektion im positiven Sinne beeinflußt. Beispielsweise wirken (Z)- bzw. (E)-2-Amino-5-chlorbenzophenonamidinohydrazonacetat (Beispiel 21 bzw. 32) dosisabhängig und stark protektiv nach i.v. Gabe (3 min vor Okklusion) von 1 . 10⁻⁵ und 2,1 . 10⁻⁵mol/kg. Die an der Aconitinarrhythmie gefundene gute antiarrhythmische Wirkung wurde damit an der Okklusion bestätigt, was durch die in Tabelle 7 zusammengestellten Ergebnisse dokumentiert werden soll. TABELLE 7
# [4] = system: g-Strophantinarrhythmie; assay: g-Strophanthin arrhythmia, guinea pig, i.v.; assay type: in vivo, Meerschweinchen
# Method: Die Methode beruht auf der Erzeugung ventrikulärer Arrhythmien durch g-Strophantin, das männlichen Meerschweinchen in Urethannarkose (Körpermasse 300-350 g) in der Dosierung von 30 µg/kg/min über die Vena jugularis infundiert wurde. Bewertungskriterien sind hierbei die am EKG unter g-Strophantin zu beobachtenden ersten Extrasystolen sowie der Eintritt der Asystolie. Die Verzögerung des Auftretens dieser Ereignisse unter Substanzgabe wird berechnet und ist als Maß der antiarrhythmischen Effektivität zu werten.
# [5] = system: isoprenalininduzierten Glykogenolyse; assay: Isoprenaline ischaemia, rat, i.v. and p.o. (heart glycogen content); assay type: in vivo, Ratte; conditions: mean of n = 10
# Method: Der Myokardschutz durch verschiedene Verbindungen der allgemeinen Formel 1 wurde nach i.v. und p.o. Applikation der Verbindungen am Modell der Isoprenalinischämie der Ratte geprüft. Die für diese Untersuchungen verwendete Methode erfaßt die Veränderungen des Glykogengehaltes im Herzgewebe unter Isoprenalin und dessen Beeinflussung durch Testsubstanzen. Isoprenalin wurde dabei intraperitoneal in Dosis von 5 mg/kg verabfolgt. Die i.v. Injektion der Prüfstoffe erfolgte unmittelbar vor der Isoprenalingabe, die orale Applikation 30 min davor. Als Versuchstiere wurden männliche Wistarratten (Körpermasse 200-250 g) eingesetzt. Einige der Verbindungen zeigten eine auffallende myokardprotektive Wirksamkeit. […] Die nach i.v.- bzw. p.o.-Applikation aus je n = 10 Tieren pro Dosis beobachteten Hemmwerte (Mittelwerte) gegenüber der Isoprenalininwirkung sind in Tabelle 8 aufgeführt. Tabelle 8
# [6] = Toxicology, repeated oral dosing, rat; conditions: per os, repeated administration
# [7] = system: schnellen Na⁺-Einwärtsstromes; assay: Voltage clamp on isolated adult rat heart cells
# [8] = Clinical trial stage I, intravenous, man
# [9] = Toxicology, repeated oral dosing, minipig; conditions: per os, repeated administration
# [10] = 5 . 10⁻⁷ mol/kg i.v., significant vs control
molecule,measurement,setting,value
CC[C@H]1[C@@H]2C[C@H]3[C@@H]4N(C)c5ccccc5[C@]45C[C@@H]([C@@H]2[C@H]5O)N3[C@@H]1O [Ajmalin],therapeutische Index (Q = LD₅₀/ED₂₀),[1],"6,8"
"N=C(NN=C(c1ccccc1)c1cc(Cl)ccc1N)Nc1ccccc1.O=[N+]([O-])O [Beispiel 3, (E)-/(Z)-2-Amino-5-chlorbenzophenon-N-phenylamidinohydrazonnitrat]",ischämisches Gewebe x %,"[2]; 1 . 10⁻⁷ mol/kg i.v. 3 min before occlusion, control 46,1","21,0%"
same,Hemmung der Infarktgröße x %,[2]; 1 . 10⁻⁷ mol/kg i.v.,"54,4 s %"
same,normalen Sinusrhythmus,[3]; 5 . 10⁻⁷ mol/kg i.v.,50%
same,Auftreten verschiedener Arrhythmieformen (VF),[3]; [10],10%
same,Auftreten verschiedener Arrhythmieformen (VT),[3]; [10],30%
same,Auftreten verschiedener Arrhythmieformen (andere),[3]; [10],50%
same,Überlebensrate,[3]; [10],80%
same,antiarrhythmische Wirkung gegenüber der g-strophantininduzierten Extrasystolie,[4]; 1 . 10⁻⁶ mol/kg i.v.,+19%
same,antiarrhythmische Wirkung gegenüber der g-strophantininduzierten Extrasystolie,"[4]; 2,10 . 10⁻⁶ mol/kg i.v.",+35%
"Cl.N=C(N)N/N=C(\c1ccccc1)c1cc(Cl)ccc1N [Beispiel 30, (E)-2-Amino-5-chlorbenzophenonamidinohydrazonhydrochlorid]",Verzögerung des Eintritts der ersten Extrasystolen,"[4]; 1,25 . 10⁻⁶ mol/kg i.v.",33%
CCOC(=O)Nc1ccc2c(c1)N(C(=O)CCN1CCOCC1)c1ccccc1S2 [Etmozin],therapeutische Index (Q = LD₅₀/ED₂₀),[1],"1,8"
CCOc1ccccc1OCC(O)CNCCNCC(O)COc1ccccc1OCC (centres unmarked) [Falirythmin],therapeutische Index (Q = LD₅₀/ED₂₀),[1],"11,5"
CC[C@H]1C2C[C@H]3[C@@H]4N(C)c5ccccc5[C@]45C[C@@H]([C@@H]2[C@H]5O)[N@@+]3(CC(O)CN(CC)CC)[C@@H]1O (some centres unmarked) [Tachmalcor],therapeutische Index (Q = LD₅₀/ED₂₀),[1],"25,5"
(E)-2-Amino-5-chlorbenzophenonamidinohydrazonacetat [Beispiel 32],Überlebensrate n. 20 min,[3],71 s %
same,Normaler Sinusrhythmus,[3],46 s %
same,Tod durch Bradyk.,[3],19 ns %
same,Auftreten von Arrhythmien VF,[3],8 s %
same,Auftreten von Arrhythmien VT,[3],13 s %
same,Auftreten von Arrhythmien andere,[3],54 ns %
(Z) -2-Amino-5-chlorbenzophenonamidinohydrazonacetat [Beispiel 21],x % Hemmung,"[5]; intravenös, 1,0 . 10⁻⁵ mol/kg","48,7%"
same,x % Hemmung,"[5]; intravenös, 1,5 . 10⁻⁵ mol/kg","37,6%"
same,x % Hemmung,"[5]; intravenös, 3,2 . 10⁻⁵ mol/kg","45,0%"
same,x % Hemmung,"[5]; intravenös, 3,2 . 10⁻⁶ mol/kg","5,9%"
same,x % Hemmung,"[5]; intravenös, 4,6 . 10⁻⁶ mol/kg","26,7%"
same,x % Hemmung,"[5]; intravenös, 5,0 . 10⁻⁵ mol/kg","69,6%"
same,x % Hemmung,"[5]; peroral, 1,0 . 10⁻⁴ mol/kg","25,6%"
same,x % Hemmung,"[5]; peroral, 1,9 . 10⁻⁴ mol/kg","81,4%"
same,x % Hemmung,"[5]; peroral, 3,7 . 10⁻⁴ mol/kg","71,4%"
same,x % Hemmung,"[5]; peroral, 5,0 . 10⁻⁴ mol/kg","85,3%"
same,x % Hemmung,"[5]; peroral, 7,2 . 10⁻⁵ mol/kg, 30 min before isoprenaline","37,2%"
same,ischämisches Gewebe x %,"[2]; 2 . 10⁻⁵ mol/kg i.v. 3 min before occlusion, control 35,0","15,2%"
same,Hemmung der Infarktgröße x %,[2]; 2 . 10⁻⁵ mol/kg i.v.,"56,6 s %"
same,Dosen als gut verträglich eingeschätzt,[6],25 mg/kg
same,schneller Na⁺-Einwärtsstrom,[7],Hemmung
same,Überlebensrate n. 20 min,[3],70 s %
same,Normaler Sinusrhythmus,[3],26 s %
same,Tod durch Bradyk.,[3],25 ns %
same,Auftreten von Arrhythmien VF,[3],8 s %
same,Auftreten von Arrhythmien VT,[3],13 s %
same,Auftreten von Arrhythmien andere,[3],54 ns %
same,Verzögerung des Auftretens der ersten Extrasystolen,"[4]; 6,25 . 10⁻⁷ mol/kg i.v. 5 min before g-strophanthin infusion, significant",28%
same,therapeutische Index (Q = LD₅₀/ED₂₀),[1],"40,0"
same,therapeutische Index Qp.o.,[1]; single oral administration,"74,3"
same,"Dosierung, ab der die antiarrhythmische Aktivität ausreichend erscheint",[8],"≥ 0,25 mg/kg"
same,"Dosis, bei der die antiarrhythmische Aktivität beginnt",[8],"0,06 mg/kg"
same,Dosen als gut verträglich eingeschätzt,[9],30 mg/kg
